The values below come from patent publication US10330685B2, “Markers for sepsis treatment” (priority 2014, dated 2019).

A short description of series [1]: Serum metabolites by 1H-NMR before and 24 h and 48 h after L-carnitine treatment. In kind it is in vivo, human. As for the experimental part:
(§1) These and other features, aspects, and advantages of the present technology will become better understood with regard to the following drawings, which represent the analysis of patients enrolled in a phase I study of L-carnitine in septic shock (see, e.g., Puskarich et al. J Parenter Enteral Nutr 38(6): 736-743, incorporated herein by reference in its entirety). From this study, serum samples collected from carnitine-treated (n=16) and placebo-treated (n=14) patients were assayed by ^1H-nuclear magnetic resonance (NMR) and the resulting spectra were used to identify and quantify metabolites; a total of 38 metabolites were identified in each sample:
Serum samples were collected from patients enrolled in a previously published double-blind randomized phase I clinical trial of L-carnitine treatment for sepsis (see, e.g., Puskarich et al., J Parenter Enteral Nutr 38(6): 736-743, incorporated herein by reference in its entirety). From this study, serum samples collected from carnitine-treated (n=16) and placebo-treated (n=15) patients were assayed by ^1H-nuclear magnetic resonance (NMR) and the resulting spectra were used to identify and quantify metabolites; a total of 38 metabolites were identified in each sample. […]
The levels of these metabolites were also measured in samples acquired at 24 hours and 48 hours after treatment with L-carnitine. […]

For a further series, the system named is sepsis patients. The experiment in a line: Phase I clinical trial of L-carnitine treatment for sepsis: survival. In kind it is in vivo, human. As to the method: as §1
Serum samples were collected from patients enrolled in a previously published double-blind randomized phase I clinical trial of L-carnitine treatment for sepsis (see, e.g., Puskarich et al., J Parenter Enteral Nutr 38(6): 736-743, incorporated herein by reference in its entirety). From this study, serum samples collected from carnitine-treated (n=16) and placebo-treated (n=15) patients were assayed by ^1H-nuclear magnetic resonance (NMR) and the resulting spectra were used to identify and quantify metabolites; a total of 38 metabolites were identified in each sample.
Serum was assayed prior to (T0) and following (T24, T48) treatment with a single 12-g dose of LC or placebo. […]

In another series the test system is septic shock. The following applies: septic shock patients; cited from earlier work.

Regarding `C[N+](C)(C)C[C@H](O)CC(=O)[O-]` [L-carnitine], the “carnitine levels at 24 hours” value in series [1] (in vivo) was “higher carnitine levels”. For the same compound, the citrate levels entry in series [1] (serum, LC-treated patients, following a profound decline) is on record as “increased”. For the same compound, the mortality rate entry in the series with sepsis patients ("high" ketone sepsis patients treated with LC compared with "low" ketone patients) was “higher mortality rate”. Moreover, in the series with sepsis patients (patients with "low" amounts of ketone prior to L-carnitine treatment vs patients with "high" amounts), the survival entry is “significantly better survival”. Besides, the “hemodynamic parameters (right atrial pressure, mean arterial pressure, arterial oxygenation)” value with septic shock is “improvements”.
